Laboratory results from patent US11001562B2, “Near-infrared fluorescent nerve contrast agents and methods of use thereof” (Beth Israel Deaconess Medical Center, priority 2013, dated 2021).
“Also recorded” adds a separate entry of the source.

Key:
[1] = tested on: rat brachial plexus and sciatic nerves; assay: In vivo nerve-specificity screening with FLARE imaging
From the text: The dual-NIR channel FLARE^a imaging system has been described in detail previously (26-28). In this study, a 670 nm excitation was used at a fluence rate of 4 mW/cm^2, with white light (400-650 nm) at 40,000 1×. Color and NIR fluorescence images were acquired simultaneously with custom software at rates up to 15 Hz over a 15 cm diameter field of view. A pseudo-colored lime green was used for NIR fluorescence in the color-NIR merged images. The imaging system was positioned at a distance of 18 inches from the surgical field.
Initial in vivo screening occurred in rats based on our previous study of BMB (Supplementary Methods) (25). For kinetic and dose-response studies, 50-400 nmol (0.8-6.3 mg/kg) of Oxazine 4 was injected intravenously into mice and measurements taken over 24 h. Control images were acquired prior to injecting NIR fluorophores. The fluorescence signal in nervous tissues and signal-to-background ratio (SBR) compared to neighboring muscle (Mu) were obtained over the period of imaging. For the large animal study, the optimal dose found in mice (200-400 nmol per mouse) was used in pigs by scaling to body surface area (29, 30).
Sprague-Dawley (SD) male rats weighing 250-300 g were purchased from Charles River Laboratories (Wilmington, Mass.). BMB, Oxazine 1, Oxazine 4, Oxazine 170, Oxazine 750, and Rhodamine 800 were initially screened to investigate nerve specificity in rats. For the initial screening, we administered a relatively high dose (2 mg/kg; 1 μmol) of each fluorophore intravenously. 4 h after injection, brachial plexus (BP) and sciatic nerve (SN) were imaged using the intraoperative FLARE^a system for in vivo nerve-specific fluorophores screening.

[2] = tested on: pig sciatic nerve tissue cross sections; assay: Ex vivo nerve-specific fluorophore screening on nerve tissue sections; conditions: 100 μM fluorophore, 20 min incubation, pig sciatic nerve sections
Procedure: Phase contrast image (top) and fluorescence image (bottom) of nerve tissue sections incubated with 100 μM of test fluorophores are shown. Nerve-specific fluorescence intensity was determined using staining of pig sciatic nerve cut in cross section. Nerve tissue sections were incubated in 30% FBS solutions without (negative control, autofluorescence only) and with each fluorophore. As a positive control, previously reported nerve-specific BMB was used. Shown are phase contrast image (top) and fluorescence image (bottom) of nerve tissue sections incubated with 100 μM of each fluorophore. The control autofluorescence images were taken with equivalent exposure time and normalization. Arrowheads indicate fluorescence signals in nerve bundles. Ad=adipose tissue. Scale bars=200 μm. The SBR of each nerve relative to the neighboring adipose tissue was quantified and labeled as—, SBR<1; +, SBR=1−2; and ++, SBR >2.
Sciatic nerves from female Yorkshire pigs were harvested, fixed in 2% paraformaldehyde (PFA), and flash frozen in optimal cutting temperature (OCT) compound using liquid nitrogen. Nerve tissues were cut in cross section using a cryostat at […] thickness onto positively charge glass slides. Tissue sections were washed once with phosphate buffered saline (PBS) for 2 min to remove residual OCT. The tissue was then fixed to the slide with 2% PFA for 15 min, followed by washing with PBS (3×5 min). A formulation was previously developed for intravenous (IV) administration and was used in the current study to incubate the fluorophores with the nerve tissue (25). All fluorophores were mixed from the 100 mM stock solution into the IV formulation at 100 µM and incubated with the washed nerve tissue sections at room temperature for 20 min. Additional IV formulation not containing fluorophore was mixed and used to wash each nerve section twice (5 min per wash) following incubation with the formulated fluorophore. The nerve section was then washed an additional 2 times with PBS (5 min per each), after which coverslips were mounted using Fluoromount-G (Southern Biotech, Birmingham, Ala.).
NIR fluorescence microscopy for ex vivo nerve tissue slides was performed on a Nikon Eclipse TE300 microscope system as previously described (12, 19, 25). The microscope was equipped with a 100 W mercury light source, NIR-compatible optics, and a NIR-compatible 10× Plan Fluor objective lens and a 100× Plan Apo oil immersion objective lens (Nikon, Melville, N.Y.). Images were acquired on an Orca-AG (Hamamatsu, Bridgewater, N.J.). Image acquisition and analysis was performed using IPLab software (Scanalytics, Fairfax, Va.). A custom filter set (Chroma Technology Corporation, Brattleboro, Vt.) composed of a 650±22 nm excitation filter, a 675 nm dichroic mirror, and an 710±25 nm emission filter were used to detect Oxazine derivatives and Rhodamine 800 signals in the nerve tissue slides. For BMB, a mercury light source was passed through a 360±25 nm BP excitation filter, a 400 nm LP beam splitter, and a 550±50 nm emission filter.

[3] = Optical property measurements (absorbance and fluorescence spectra); assay type: physicochemical; conditions: 100% FBS with 50 mM HEPES, pH 7.4, 37° C.
Procedure: Absorbance and fluorescence spectra were obtained at a concentration of […] in 100% FBS supplemented with 50 mM HEPES, pH 7.4. B) Optical properties of Oxazine 4 were measured in PBS (pH 7.4), FBS (pH 7.4), MeOH, and DMSO.
Oxazine derivatives were obtained from Fisher Scientific Inc. (Pittsburgh, Pa.) or Sigma-Aldrich (Saint Louis, Mo.), and BMB was synthesized as described previously (25). Optical measurements were performed at 37° C. in phosphate-buffered saline (PBS), pH 7.4 or 100% fetal bovine serum (FBS) buffered with 50 mM HEPES, pH 7.4. Absorbance and fluorescence emission spectra were measured using fiber optic HR2000 absorbance (200-1100 nm) and USB2000FL fluorescence (350-1000 nm) spectrometers (Ocean Optics, Dunedin, Fla.). NIR excitation was provided by a 532 nm green laser pointer (Opcom Inc., Xiamen, China) set to 5 mW and coupled through a […] core diameter, NA 0.22 fiber (Fiberguide Industries, Stirling, N.J.). In silico calculation of the partition coefficient (log D at pH 7.4) was calculated using Marvin and J Chem calculator plugins (ChemAxon, Budapest, Hungary). Chemical similarities were calculated by Instant J Chem 6.04 using “Chemical Hashed Fingerprint” with the Normalized Euclidean dissimilarity screening configuration (ChemAxon).
All optical measurements were performed at 37° C. in phosphate-buffered saline (PBS), pH 7.4, 100% fetal bovine serum (FBS) buffered with 50 mM HEPES, pH 7.4, methanol (MeOH), or dimethyl sulfoxide (DMSO). Absorbance and fluorescence emission spectra of the series of NIR fluorophores were measured using fiber optic HR2000 absorbance (200-1100 nm) and USB2000FL fluorescence (350-1000 nm) spectrometers (Ocean Optics, Dunedin, Fla.). Excitation light was provided by a 532 nm green laser pointer (Opcom Inc., Xiamen, China) set to 5 mW and coupled through a 300 μm core diameter, NA 0.22 fiber (Fiberguide Industries, Stirling, N.J.). In silico calculation of the partition coefficient (log D at pH 7.4) was calculated using Marvin and J Chem calculator plugins (ChemAxon, Budapest, Hungary).

[4] = comparison of structures in discussion

CC/N=c1/cc2oc3cc(NCC)c(C)cc3nc-2cc1C [Oxazine 4]
nerve-specific fluorescence signal in vivo ([1]; SD rats, 2 mg/kg (1 μmol) iv, 4 h after injection, brachial plexus and sciatic nerve, 2 mg/kg): highest nerve-specific fluorescence signal; also recorded: higher nerve-specific fluorescence signal
background (muscle and adipose tissue) fluorescence signal in vivo ([1]; SD rats, 2 mg/kg (1 μmol) iv, 4 h after injection, 2 mg/kg): lowest background; also recorded: lower background
adipose signal (discussion summary) [1, 4]: moderate adipose
nerve signal (discussion summary) [1, 4]: high nerve signal
nerve-specific fluorescence signal in cross-sectioned nerve [2]: strong fluorescence signal throughout the cross-sectioned nerve
Abs (peak absorbance) [3]: 616 nm
Em (peak emission) [3]: 635 nm
λ (extinction coefficient) [3]: 143,000 M^−1cm^−1
